US10294202B2, “Pyrrolidinones as herbicides” (FMC Corporation, priority 2013, dated 2019)

Columns and labels:
corn = experiment: Test C pre-/postemergence herbicide test; type: in vivo, Zea mays; settings: Preemergence; for Plant response rating (scale of 0 to 100), Corn: 250 g ai/ha
Excerpt: (§1) Seeds of plant species selected from blackgrass (Alopecurus myosuroides), ryegrass, Italian (Italian ryegrass, Lolium multiflorum), wheat (winter wheat, Triticum aestivum), galium (catchweed bedstraw, Galium aparine), corn (Zea mays), crabgrass, large (large crabgrass, Digitaria sanguinalis), foxtail, giant (giant foxtail, Setaria faberii), johnsongrass (Sorghum halepense), lambsquarters (Chenopodium album), morningglory (Ipomoea coccinea), nutsedge, yellow (yellow nutsedge, Cyperus esculentus), pigweed (Amaranthus retroflexus), ragweed (common ragweed, Ambrosia elatior), soybean (Glycine max), barnyardgrass (Echinochloa crus-galli), oilseed rape (Brassica napus), waterhemp (common waterhemp, Amaranthus rudis), kochia (Kochia scoparia), oat, wild (wild oat, Avena fatua), surinam grass (Brachiaria decumbens), foxtail, green (green foxtail, Setaria viridis), goosegrass (Eleusine indica), bromegrass, downy (downy bromegrass, Bromus tectorum), nightshade (eastern black nightshade, Solanum ptycanthum), cocklebur (common cocklebur, Xanthium strumarium), cupgrass, woolly (woolly cupgrass, Eriochloa villosa), bermudagrass (Cynodon dactylon), sunflower, (common oilseed sunflower, Helianthus annuus), Russian thistle (Salsola kali) and velvetleaf (Abutilon theophrasti) were planted into a blend of loam soil and sand and treated preemergence with test chemicals formulated in a non-phytotoxic solvent mixture which included a surfactant. At the same time, plants selected from these crop and weed species and also barley (winter barley, Hordeum vulgare), […]), chickweed (common chickweed, Stellaria media), deadnettle (henbit deadnettle, Lamium amplexicaule), and canarygrass (littleseed canarygrass, Phalaris minor) were planted in pots containing Redi-Earth® planting medium (Scotts Company, 14111 Scottslawn Road, Marysville, Ohio 43041) comprising spaghnum peat moss, vermiculite, wetting agent and starter nutrients and treated with postemergence applications of test chemicals formulated in the same manner. Plants ranged in height from 2 to 18 cm (1- to 4-leaf stage) for postemergence treatments. Treated plants and controls were maintained in a greenhouse for 13 to 15 days, after which time all species were compared to controls and visually evaluated. Plant response ratings, summarized in Table C, are based on a scale of 0 to 100 where 0 is no effect and 100 is complete control. A dash (-) response means no test result.

pigweed = experiment: Test A pre-/postemergence herbicide test; type: in vivo, Amaranthus retroflexus; settings: for Pigweed plant response rating: visual rating on 0 to 100 scale (0 no effect, 100 complete control)
Procedure, shortened: (§2)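 Greenhouse pot test with pre- and postemergence application of surfactant-containing solvent formulations. Postemergence plants were 2–10 cm, one- to two-leaf stage. Response scored visually after ~10 days, 0 (no effect) to 100 (complete control).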

barnyardgrass = experiment: Test A pre-/postemergence herbicide test; type: in vivo, Echinochloa crus-galli; settings: for Barnyardgrass plant response rating: visual rating on 0 to 100 scale (0 no effect, 100 complete control)
Procedure, shortened: as §2

nutsedge, yellow = experiment: Test C pre-/postemergence herbicide test; type: in vivo, Cyperus esculentus; settings: Preemergence; for Plant response rating (scale of 0 to 100), Nutsedge, Yellow: 250 g ai/ha
Excerpt: as §1

ragweed = experiment: Test C pre-/postemergence herbicide test; type: in vivo, Ambrosia elatior; settings: Preemergence; for Plant response rating (scale of 0 to 100), Ragweed: 250 g ai/ha
Excerpt: as §1

[1] = 31 g ai/ha, scale 0 to 100, 0 is no effect and 100 is complete control
[2] = 125 g ai/ha, scale 0 to 100 (0 no effect, 100 complete control)
[3] = Postemergence, 125 g ai/ha, 0 to 100 scale, 0 no effect, 100 complete control
[4] = Postemergence, 500 g ai/ha, 0 to 100 scale (0 no effect, 100 complete control)
[5] = preemergence, 500 g ai/ha, 0 to 100 scale
[6] = preemergence, 500 g ai/ha, 0 to 100 scale (0 no effect, 100 complete control)
[7] = 62 g ai/ha, scale 0 to 100 (0 no effect, 100 complete control)
[8] = Postemergence, 125 g ai/ha, 0 to 100 scale, 0 is no effect, 100 is complete control
[9] = Preemergence, 125 g ai/ha, 0 to 100 scale where 0 is no effect and 100 is complete control
[10] = preemergence, 500 g ai/ha, 0 to 100 scale, 0 is no effect and 100 is complete control
[11] = 125 g ai/ha, visual rating, 0 to 100 scale, 0 no effect, 100 complete control, approximately 10 days, preemergence

Row | Structure (SMILES) | Corn plant response rating (corn; [1]) | Plant response rating, Corn (corn; [2]) | Plant response rating (scale of 0 to 100), Corn (corn) | Plant response rating, Pigweed (pigweed; [4]) | Plant response rating, Barnyardgrass (barnyardgrass; [4]) | Nutsedge, Yellow plant response rating (nutsedge, yellow; [1]) | Plant response rating, Nutsedge, Yellow (nutsedge, yellow; [2]) | Plant response rating (scale of 0 to 100), Nutsedge, Yellow (nutsedge, yellow) | Corn plant response rating (corn; [7]) | Plant response rating, Pigweed (pigweed; [8]) | Plant response rating, Pigweed (pigweed; [9]) | Plant response rating, Pigweed (pigweed; [10]) | Plant response rating, Barnyardgrass (barnyardgrass; [8]) | Plant response rating, Barnyardgrass (barnyardgrass; [9]) | Plant response rating, Barnyardgrass (barnyardgrass; [10]) | Ragweed plant response rating (ragweed; [1]) | Ragweed plant response rating (ragweed; [7]) | Plant response rating, Ragweed (ragweed; [2]) | Plant response rating (scale of 0 to 100), Ragweed (ragweed) | Nutsedge, Yellow plant response rating (nutsedge, yellow; [7]) | also measured
1 | O=C1NCC(c2ccc(F)c(C(F)(F)F)c2)C1C(=O)Nc1ccccc1C(F)(F)F (racemic) [Compound 78] | 0 | 40 | 60 | 50 | 70 | 0 | 0 | 0 | – | – | – | – | – | – | – | – | – | – | – | – | Plant response rating, Corn (corn; 62 g ai/ha, scale 0 to 100): 0; Plant response rating, Pigweed (pigweed; [3]): 50; Pigweed plant response rating (pigweed; Preemergence, 125 g ai/ha): 10; Plant response rating, Pigweed (pigweed; [5]): 60; Plant response rating, Barnyardgrass (barnyardgrass; [3]): 50; Barnyardgrass plant response rating (barnyardgrass; Preemergence, 125 g ai/ha): 80; Plant response rating, Barnyardgrass (barnyardgrass; [6]): 90; Plant response rating, Nutsedge, Yellow (nutsedge, yellow; 62 g ai/ha, scale 0 to 100): 0
2 | O=C1NCC(c2cccc(C(F)(F)F)c2)C1C(=O)Nc1ccccc1F (racemic) [Compound 3] | – | – | – | 50 | 80 | – | – | – | – | – | – | – | – | – | – | – | – | – | – | – | Pigweed plant response rating (pigweed; Preemergence, 125 g ai/ha): 0; Plant response rating, Pigweed (pigweed; [5]): 0; Plant response rating, Barnyardgrass (barnyardgrass; [3]): 70; Barnyardgrass plant response rating (barnyardgrass; Preemergence, 125 g ai/ha): 60; Plant response rating, Barnyardgrass (barnyardgrass; [6]): 80
3 | O=C1NCC(c2ccc(C(F)(F)F)c(F)c2)C1C(=O)Nc1cccc(F)c1F (racemic) [Compound 247] | 5 | 60 | 60 | 0 | 80 | 0 | 20 | 0 | 15 | 0 | 0 | 0 | 60 | 90 | 90 | 100 | 85 | 70 | 98 | 20 | –
4 | O=C1NCC(c2ccc(C(F)(F)F)nc2)C1C(=O)Nc1ccccc1F (racemic) [Compound 262] | 0 | 10 | 10 | 0 | 70 | 75 | 0 | 0 | 0 | 0 | 50 | 70 | 60 | 80 | 90 | 0 | 20 | 10 | 75 | 0 | –
5 | O=C1NCC(c2ccc(F)c(F)c2)C1C(=O)Nc1cccc(F)c1 (racemic) [Compound 12] | – | – | – | 0 | 90 | – | – | – | – | – | – | – | – | – | – | – | – | – | – | – | Plant response rating, Pigweed (pigweed; [3]): 0; Pigweed plant response rating (pigweed; Preemergence, 125 g ai/ha): 0; Plant response rating, Pigweed (pigweed; [5]): 0; Plant response rating, Barnyardgrass (barnyardgrass; [3]): 60; Barnyardgrass plant response rating (barnyardgrass; Preemergence, 125 g ai/ha): 60; Plant response rating, Barnyardgrass (barnyardgrass; [6]): 90
6 | O=C1NCC(c2ccc(C(F)(F)F)c(F)c2)C1C(=O)Nc1ccccc1F (racemic) [Compound 246] | 0 | 5 | 0 | 0 | 70 | 85 | 100 | 0 | 0 | 0 | 0 | 0 | 70 | 80 | 90 | 0 | 0 | 0 | 40 | 100 | –
7 | O=C1NCC(c2cccc(C(F)(F)F)c2)C1C(=O)Nc1cccc(F)c1F (stereo not drawn) [Compound 241] | 85 | 80 | 90 | 20 | 90 | 0 | 0 | 0 | 65 | 0 | 0 | 30 | 80 | 80 | 90 | 0 | 25 | 30 | 70 | 0 | –
8 | O=C1NCC(c2cccc(C(F)(F)F)c2)C1C(=O)Nc1ccccc1Cl (racemic) [Compound 189] | 0 | 40 | – | – | – | 0 | 0 | – | 0 | 0 | – | 0 | 90 | – | 90 | 0 | 0 | 0 | – | 0 | Plant response rating, Corn (corn; 16 g ai/ha, scale 0 to 100): 0; Plant response rating, Pigweed (pigweed; [11]): 0; Pigweed plant response rating (0 to 100 scale, 0 is no effect, 100 is complete control) (pigweed; Postemergence, 500 g ai/ha): 0; Plant response rating, Barnyardgrass (barnyardgrass; [11]): 80; Barnyardgrass plant response rating (0 to 100 scale, 0 is no effect, 100 is complete control) (barnyardgrass; Postemergence, 500 g ai/ha): 90; Plant response rating, Ragweed (ragweed; 16 g ai/ha, scale 0 to 100): 0; Plant response rating, Nutsedge, Yellow (nutsedge, yellow; 16 g ai/ha, scale 0 to 100): 0
9 | O=C1NCC(c2ccc(C(F)(F)F)nc2)C1C(=O)Nc1cccc(F)c1F (racemic) [Compound 263] | 0 | 0 | 10 | 70 | 80 | 0 | 100 | 0 | 0 | – | 60 | 100 | 70 | 80 | 90 | 0 | 90 | 80 | 100 | 0 | –
